Test results as given in US8343961B2, “Substituted heterocyclic compounds” (ArQule, Inc., priority 2009, dated 2013).

Columns and labels:
EphA8 = molecular target: T1, EphA8 (Homo sapiens, UniProt P29322); assay: EphA8 Kinase Activity Assay; format: biochemical; conditions: read-out: EphA8, % INH, at 30 uM
T1 sequence (P29322 28-1005): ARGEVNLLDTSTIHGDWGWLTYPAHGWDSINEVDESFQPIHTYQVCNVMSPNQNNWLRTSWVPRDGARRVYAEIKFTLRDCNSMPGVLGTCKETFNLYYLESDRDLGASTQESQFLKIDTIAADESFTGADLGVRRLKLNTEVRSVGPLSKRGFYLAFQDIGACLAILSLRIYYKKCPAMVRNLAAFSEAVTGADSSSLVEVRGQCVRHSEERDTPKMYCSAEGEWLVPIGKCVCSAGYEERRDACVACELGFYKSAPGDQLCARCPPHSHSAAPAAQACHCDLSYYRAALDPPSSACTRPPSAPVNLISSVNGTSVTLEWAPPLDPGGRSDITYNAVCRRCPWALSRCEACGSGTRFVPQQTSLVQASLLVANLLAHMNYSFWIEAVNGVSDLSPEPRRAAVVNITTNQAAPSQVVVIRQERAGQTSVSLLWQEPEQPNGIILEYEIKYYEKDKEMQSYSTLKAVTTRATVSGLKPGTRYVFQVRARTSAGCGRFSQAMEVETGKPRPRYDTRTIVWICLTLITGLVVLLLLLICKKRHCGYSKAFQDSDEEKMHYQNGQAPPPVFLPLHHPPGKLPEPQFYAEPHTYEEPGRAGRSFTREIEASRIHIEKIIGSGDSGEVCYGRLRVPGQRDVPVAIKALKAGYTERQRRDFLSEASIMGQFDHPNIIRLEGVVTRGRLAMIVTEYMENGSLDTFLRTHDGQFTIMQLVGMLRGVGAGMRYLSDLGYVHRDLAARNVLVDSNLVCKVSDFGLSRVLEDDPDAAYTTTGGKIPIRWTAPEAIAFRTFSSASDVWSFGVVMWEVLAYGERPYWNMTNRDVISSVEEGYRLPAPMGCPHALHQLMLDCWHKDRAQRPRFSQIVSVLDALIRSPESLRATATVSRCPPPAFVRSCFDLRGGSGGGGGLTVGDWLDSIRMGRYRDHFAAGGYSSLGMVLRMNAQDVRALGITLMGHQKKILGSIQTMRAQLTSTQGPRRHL
Procedure: Nunc Maxisorb plates are coated with streptavidin by overnight incubation with 100 μL per well of 1 μg/ml Streptavidin in DPBS. Prior to the start of the experiment, the plates are washed with TBST (3×200 μL) and blocked for at least 1 hour by adding 150 μL of 5% BSA/TBST. The plates are washed with TBST (3×200 μL/well) and left dry immediately before the capture step.
The test articles and control (Staurosporine) are prepared using the following assay buffer @ 3× desired final concentration (50 mM Tris-HCl, 0.02 mg/ml BSA, 10 mM MgCl2, 0.1 mM Na3VO4, 1 mM EGTA, 12.5 μM ATP, 0.01% NP-40, 1 mM DTT in 10% glycerol/water). In a reaction plate are added rapidly 20 μl test article (or control) and 20 μl EphA8 (0.12 ng/μl final concentration). The plate is incubated for 15 minutes. To the reaction plate is added 20 μl of Pyk-2 (0.75 ng/μl final concentration). The plate is incubated at room temperature for one hour. From the reaction plate, 50 μl is transferred to the streptavidin coated plate. The capture plate is incubated at room temperature for 30 minutes, then washed 6× with TBST. To the capture plate is added 100 μL/well of Cell Signaling anti-phospho tyrosine at a dilution of 1:3000 in 2% BSA/TBST. The plate is incubated for one hour at room temperature then washed 6× with TBST. To the capture plate is added 100 μL/well of Alkaline Phosphatase Tagged Goat anti Mouse Antibody at a dilution of 1:4000 in 2% BSA/TBST. The plate is incubated for one hour at room temperature then washed 6× with TBST. The fluorescent readout is initiated by the addition of 100 μl/well of Attophos reagent (6 mg/10 mL). The reading is done on the Perkin Elmer Envision system.

RET kinase = RET kinase (Homo sapiens, UniProt P07949); assay: RET Kinase Activity Assay; format: biochemical; conditions: read-out: Ret, % INH, at 30 uM
Chain of RET kinase (P07949 29-1114): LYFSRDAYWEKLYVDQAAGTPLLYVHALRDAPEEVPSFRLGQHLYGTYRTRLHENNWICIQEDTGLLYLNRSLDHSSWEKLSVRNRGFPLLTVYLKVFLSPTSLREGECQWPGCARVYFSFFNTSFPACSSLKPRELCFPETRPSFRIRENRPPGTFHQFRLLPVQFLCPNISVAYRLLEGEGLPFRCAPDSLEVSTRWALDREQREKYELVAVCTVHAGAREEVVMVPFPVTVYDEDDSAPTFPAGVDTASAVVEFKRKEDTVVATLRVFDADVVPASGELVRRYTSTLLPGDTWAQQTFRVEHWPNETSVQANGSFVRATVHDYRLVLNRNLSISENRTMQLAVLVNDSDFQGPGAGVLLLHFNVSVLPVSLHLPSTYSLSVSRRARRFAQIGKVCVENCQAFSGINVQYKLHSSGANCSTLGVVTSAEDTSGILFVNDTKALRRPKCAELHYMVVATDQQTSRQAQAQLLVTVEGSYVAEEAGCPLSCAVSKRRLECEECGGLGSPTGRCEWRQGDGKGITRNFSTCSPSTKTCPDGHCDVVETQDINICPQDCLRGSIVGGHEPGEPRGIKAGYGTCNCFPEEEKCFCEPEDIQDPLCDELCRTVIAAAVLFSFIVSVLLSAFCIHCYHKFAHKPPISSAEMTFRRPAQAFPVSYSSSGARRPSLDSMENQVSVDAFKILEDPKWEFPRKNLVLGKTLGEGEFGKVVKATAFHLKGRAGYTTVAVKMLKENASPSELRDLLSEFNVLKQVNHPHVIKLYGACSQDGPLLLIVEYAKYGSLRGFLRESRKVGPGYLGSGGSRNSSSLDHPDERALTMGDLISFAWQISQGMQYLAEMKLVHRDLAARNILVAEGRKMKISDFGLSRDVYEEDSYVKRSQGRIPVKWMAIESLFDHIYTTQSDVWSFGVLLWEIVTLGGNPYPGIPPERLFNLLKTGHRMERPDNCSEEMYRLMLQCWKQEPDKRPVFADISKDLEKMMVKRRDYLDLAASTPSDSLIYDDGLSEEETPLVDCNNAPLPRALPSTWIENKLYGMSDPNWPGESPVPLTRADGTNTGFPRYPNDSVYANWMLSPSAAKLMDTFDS
In short: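 RET […] was preincubated with compound for 15 min, then phosphorylated biotinylated Pyk-2 substrate for 1 h at room temperature with 75 μM ATP and 10 mM MgCl2. Product was captured on streptavidin plates and detected with anti-phosphotyrosine, an AP-tagged secondary antibody and Attophos fluorescence.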

| SMILES | inhibition at 30 µM (EphA8) [%] | inhibition at 30 µM (RET kinase) [%] |
| --- | --- | --- |
| CC(C)c1ccc(CN2CCN(c3nc(N)nc4[nH]ncc34)Cc3ccccc32)cc1 [Compound 4, 4-[1-(4-isopropylbenzyl)-1,2,3,5-tetrahydro-4H-1,4-benzodiazepin-4-yl]-1H-pyrazolo[3,4-d]pyrimidin-6-amine] | < 50 | < 50 |
| Cc1ccccc1CN1CCN(c2nc(N)nc3[nH]cnc23)Cc2ccccc21 [Compound 11, 6-[1-(2-methylbenzyl)-1,2,3,5-tetrahydro-4H-1,4-benzodiazepin-4-yl]-9H-purin-2-amine] | < 50 | 50 to 79 |
| Cc1cccc(CN2CCN(c3nc(N)nc4[nH]cnc34)Cc3ccccc32)c1 [Compound 33, 6-[1-(3-methylbenzyl)-1,2,3,5-tetrahydro-4H-1,4-benzodiazepin-4-yl]-9H-purin-2-amine] | < 50 | 50 to 79 |

Now from value to compound:

| inhibition at 30 µM (EphA8) [%] | inhibition at 30 µM (RET kinase) [%] | SMILES |
| --- | --- | --- |
| < 50 | < 50 | Nc1nc(N2CCN(Cc3ccc(F)cc3F)c3ccccc3C2)c2cn[nH]c2n1 [Compound 38, 4-[1-(2,4-difluorobenzyl)-1,2,3,5-tetrahydro-4H-1,4-benzodiazepin-4-yl]-1H-pyrazolo[3,4-d]pyrimidin-6-amine] |
| 50 to 79 | 50 to 79 | Cc1ccc(CCCN2CCN(c3nc(N)nc4[nH]ncc34)Cc3ccccc32)cc1 [Compound 45, 4-{1-[3-(4-methylphenyl)propyl]-1,2,3,5-tetrahydro-4H-1,4-benzodiazepin-4-yl}-1H-pyrazolo[3,4-d]pyrimidin-6-amine] |
